In patent EP1072247A2, “Cosmetic and dermatological compositions based on o/w emulsions” (Beiersdorf Aktiengesellschaft, priority 1999, dated 2001):

Experiment: Interfacial tension of lipids against water (measure of polarity)
Type: physicochemical
Conditions: lipids below 30 mN/m are regarded as polar
Text: Öle und Fette unterscheiden sich unter anderem in ihrer Polarität, welche schwierig zu definieren ist. Es wurde bereits vorgeschlagen, die Grenzflächenspannung gegenüber Wasser als Maß für den Polaritätsindex eines Öls bzw. einer Ölphase anzunehmen. Dabei gilt, daß die Polarität der betreffenden Ölphase um so größer ist, je niedriger die Grenzflächenspannung zwischen dieser Ölphase und Wasser ist. Erfindungsgemäß wird die Grenzflächenspannung als ein mögliches Maß für die Polarität einer gegebenen Ölkomponente angesehen.
Die Grenzflächenspannung ist diejenige Kraft, die an einer gedachten, in der Grenzfläche zwischen zwei Phasen befindlichen Linie der Länge von einem Meter wirkt. Die physikalische Einheit für diese Grenzflächenspannung errechnet sich klassisch nach der Beziehung Kraft/Länge und wird gewöhnlich in mN/m (Millinewton geteilt durch Meter) wiedergegeben. Sie hat positives Vorzeichen, wenn sie das Bestreben hat, die Grenzfläche zu verkleinern. Im umgekehrten Falle hat sie negatives Vorzeichen. Als polar im Sinne der vorliegenden Erfindung werden Lipide angesehen, deren Grenzflächenspannung gegen Wasser weniger als 30 mN/m beträgt.
Unpolare Öle sind beispielsweise solche, welche gewählt werden aus der Gruppe der verzweigten und unverzweigten Kohlenwasserstoffe und -wachse, insbesondere Vaseline (Petrolatum), Paraffinöl, Squalan und Squalen, Polyolefine und hydrogenierte Polyisobutene. […] Tabelle 1

Grenzflächenspannungen gegen Wasser	Compound
21,9 mN/m	CCCCCCCCCCCCCCCCCC(=O)OC(C)C [Isopropylstearat, Isopropyl Stearate]
29,7 mN/m	CCCCCCCCOC(=O)CCCCCCCCCCCCCCC(C)C [Prisorine® 2036, Octyl Isostearate]
28,7 mN/m	CCCCCCCCCCCCCCCCCCOC(=O)CCCCCC [Tegosoft® SH, Stearyl Heptanoate]
20,2 mN/m	CCCCCCCC(=O)OCC(COC(=O)CCCCCCC)OC(=O)CCCCCCC [Trivent® OCG, Tricaprylin]

The remaining lines, values behind:

Compound	Grenzflächenspannungen gegen Wasser
CCCCCCCCOCCCCCCCC [Cetiol® OE, Dicaprylyl Ether]	22,1 mN/m
Octyl Palmitate [Cegesoft® C24]	23,1 mN/m
Octyl Stearate [Cetiol® 868]	28,4 mN/m
